# Reference: patent publication US9777020B2, “Furo-3-carboxamide derivatives and methods of use” (AbbVie Inc., priority 2014, dated 2017)
# Target: TrkA (Homo sapiens (Human), UniProt P04629)
# Assay: TrkA kinase HTRF enzyme inhibition assay
# Type: biochemical
# Conditions: TrkA pre-incubated with 200 μM ATP
# How it was run: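 HTRF ratio read-out of biotin-peptide (125 nM) phosphorylation, 1 h reaction after TrkA (2-10 nM) auto-activation with ATP (200 μM) for 20 min and 10 min compound pre-incubation in 50 mM HEPES pH 7.4 with MgCl2/MnCl2. Percent inhibition from initial rates in duplicate, fitted to single-site equation for IC50.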
# Chain of TrkA (P04629 33-796): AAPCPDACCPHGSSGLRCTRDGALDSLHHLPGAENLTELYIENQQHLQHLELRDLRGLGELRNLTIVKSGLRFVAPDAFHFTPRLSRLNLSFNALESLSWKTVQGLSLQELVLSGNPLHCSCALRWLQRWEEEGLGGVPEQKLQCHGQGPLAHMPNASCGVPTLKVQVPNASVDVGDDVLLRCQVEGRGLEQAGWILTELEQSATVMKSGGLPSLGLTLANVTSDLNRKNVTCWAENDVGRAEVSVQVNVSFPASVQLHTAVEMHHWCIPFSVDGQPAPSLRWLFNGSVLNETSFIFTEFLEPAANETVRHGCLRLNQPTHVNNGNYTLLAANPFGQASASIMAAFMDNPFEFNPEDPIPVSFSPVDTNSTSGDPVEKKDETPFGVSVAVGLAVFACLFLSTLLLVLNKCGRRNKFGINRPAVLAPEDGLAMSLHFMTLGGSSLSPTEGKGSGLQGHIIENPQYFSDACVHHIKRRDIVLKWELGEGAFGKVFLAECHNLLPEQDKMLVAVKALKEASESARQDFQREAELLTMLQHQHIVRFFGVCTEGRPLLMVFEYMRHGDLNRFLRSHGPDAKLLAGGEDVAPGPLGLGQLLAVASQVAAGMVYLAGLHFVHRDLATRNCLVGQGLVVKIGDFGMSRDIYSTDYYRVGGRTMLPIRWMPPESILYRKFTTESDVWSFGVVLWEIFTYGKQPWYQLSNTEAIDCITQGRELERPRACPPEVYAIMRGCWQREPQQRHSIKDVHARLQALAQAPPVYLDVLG
row,SMILES,IC50 [nM]
1,"CCOc1nc(N2CCN(C(C)=O)CC2)ccc1NC(=O)c1coc2c1C(=O)N(C[C@H](C)OC(C)=O)CC2 [Example 96, (2S)-1-[3-{[6-(4-acetylpiperazin-1-yl)-2-ethoxypyridin-3-yl]carbamoyl}-4-oxo-6,7-dihydrofuro[3,2-c]pyridin-5(4H)-yl]propan-2-yl acetate]",6.7
2,"CCOc1nc(N2CCN(C(C)=O)CC2)ccc1NC(=O)c1coc2c1C(=O)N(C[C@H](C)O)CC2 [Example 97, N-[6-(4-acetylpiperazin-1-yl)-2-ethoxypyridin-3-yl]-5-[(2S)-2-hydroxypropyl]-4-oxo-4,5,6,7-tetrahydrofuro[3,2-c]pyridine-3-carboxamide]",4.8
3,"CCOc1nc(N2CCN(C(C)=O)CC2)ccc1NC(=O)c1coc2c1C(=O)N([C@H](C)COC(C)=O)CC2 [Example 98, (2R)-2-[3-{[6-(4-acetylpiperazin-1-yl)-2-ethoxypyridin-3-yl]carbamoyl}-4-oxo-6,7-dihydrofuro[3,2-c]pyridin-5(4H)-yl]propyl acetate]",1.5
4,"CCOc1nc(N2CCN(C(C)=O)CC2)ccc1NC(=O)c1coc2c1C(=O)N([C@H](C)CO)CC2 [Example 99, N-[6-(4-acetylpiperazin-1-yl)-2-ethoxypyridin-3-yl]-5-[(2R)-1-hydroxypropan-2-yl]-4-oxo-4,5,6,7-tetrahydrofuro[3,2-c]pyridine-3-carboxamide]",3.3
5,"CCOc1nc(N2CCN(C(C)=O)CC2)ccc1NC(=O)c1coc2c1C(=O)N([C@@H](C)COC(C)=O)CC2 [Example 100, (2S)-2-[3-{[6-(4-acetylpiperazin-1-yl)-2-ethoxypyridin-3-yl]carbamoyl}-4-oxo-6,7-dihydrofuro[3,2-c]pyridin-5(4H)-yl]propyl acetate]",23.5
6,"CCOc1nc(N2CCN(C(C)=O)CC2)ccc1NC(=O)c1coc2c1C(=O)N([C@@H](C)CO)CC2 [Example 101, N-[6-(4-acetylpiperazin-1-yl)-2-ethoxypyridin-3-yl]-5-[(2S)-1-hydroxypropan-2-yl]-4-oxo-4,5,6,7-tetrahydrofuro[3,2-c]pyridine-3-carboxamide]",19.5
7,"CCOc1nc(N2CCN(C(C)=O)CC2)ccc1NC(=O)c1coc2c1C(=O)N(C(C)(C)CO)CC2 [Example 102, N-[6-(4-acetylpiperazin-1-yl)-2-ethoxypyridin-3-yl]-5-(1-hydroxy-2-methylpropan-2-yl)-4-oxo-4,5,6,7-tetrahydrofuro[3,2-c]pyridine-3-carboxamide]",12.7
8,"CCOc1nc(N2CCN(C(C)=O)CC2)ccc1NC(=O)c1coc2c1C(=O)N(CC(C)(C)OC(C)=O)CC2 [Example 103, 1-[3-{[6-(4-acetylpiperazin-1-yl)-2-ethoxypyridin-3-yl]carbamoyl}-4-oxo-6,7-dihydrofuro[3,2-c]pyridin-5(4H)-yl]-2-methylpropan-2-yl acetate]",16.9
9,"CCOc1nc(N2CCN(C(C)=O)CC2)ccc1NC(=O)c1coc2c1C(=O)N(CC(C)(C)O)CC2 [Example 104, N-[6-(4-acetylpiperazin-1-yl)-2-ethoxypyridin-3-yl]-5-(2-hydroxy-2-methylpropyl)-4-oxo-4,5,6,7-tetrahydrofuro[3,2-c]pyridine-3-carboxamide]",6
10,"CC(=O)N1CCN(c2ccc(NC(=O)c3coc4c3C(=O)NCC4)c(O[C@H]3CCOC3)n2)CC1 [Example 105, N-{6-(4-acetylpiperazin-1-yl)-2-[(3S)-tetrahydrofuran-3-yloxy]pyridin-3-yl}-4-oxo-4,5,6,7-tetrahydrofuro[3,2-c]pyridine-3-carboxamide]",23.5
11,"CC(C)(O)COc1nc(N2CCOCC2)ccc1NC(=O)c1coc2c1C(=O)NCC2 [Example 107, N-[2-(2-hydroxy-2-methylpropoxy)-6-(morpholin-4-yl)pyridin-3-yl]-4-oxo-4,5,6,7-tetrahydrofuro[3,2-c]pyridine-3-carboxamide]",6.9
12,"CCOc1nc(CC(=O)OC)ccc1NC(=O)c1coc2c1C(=O)NCC2 [Example 108, methyl(6-ethoxy-5-{[(4-oxo-4,5,6,7-tetrahydrofuro[3,2-c]pyridin-3-yl)carbonyl]amino}pyridin-2-yl)acetate]",226
13,"CCOc1nc(CCO)ccc1NC(=O)c1coc2c1C(=O)NCC2 [Example 109, N-[2-ethoxy-6-(2-hydroxyethyl)pyridin-3-yl]-4-oxo-4,5,6,7-tetrahydrofuro[3,2-c]pyridine-3-carboxamide]",225
14,"COc1nc(N2CCN(C(C)=O)CC2)ccc1NC(=O)c1coc2c1C(=O)CC1(CCOCC1)C2 [Example 110, N-[6-(4-acetylpiperazin-1-yl)-2-methoxypyridin-3-yl]-4-oxo-2′,3′,4,5′,6′,7-hexahydro-5H-spiro[1-benzofuran-6,4′-pyran]-3-carboxamide]",39.2
15,"CCOc1nc(N2CCN(C(C)=O)CC2)ccc1NC(=O)c1coc2c1C(=O)NC1(CCC1)C2 [Example 111, N-[6-(4-acetylpiperazin-1-yl)-2-ethoxypyridin-3-yl]-4′-oxo-4′,7′-dihydro-5′H-spiro[cyclobutane-1,6′-furo[3,2-c]pyridine]-3′-carboxamide]",3.9
16,"CCOc1nc(N2CCN(C(C)=O)CC2)ccc1NC(=O)c1coc2c1C(=O)NC1(CCCCC1)C2 [Example 112, N-[6-(4-acetylpiperazin-1-yl)-2-ethoxypyridin-3-yl]-4′-oxo-4′,7′-dihydro-5′H-spiro[cyclohexane-1,6′-furo[3,2-c]pyridine]-3′-carboxamide]",27.3
17,"CCOc1nc(N2CCN(C(C)=O)CC2)ccc1NC(=O)c1coc2c1C(=O)NC1(C2)CN(C(C)=O)C1 [Example 113, 1-acetyl-N-[6-(4-acetylpiperazin-1-yl)-2-ethoxypyridin-3-yl]-4′-oxo-4′,7′-dihydro-5′H-spiro[azetidine-3,6′-furo[3,2-c]pyridine]-3′-carboxamide]",65.4
18,"CCOc1nc(N2CCN(C(C)=O)CC2)ccc1NC(=O)c1coc2c1C(=O)NC1(COC1)C2 [Example 114, N-[6-(4-acetylpiperazin-1-yl)-2-ethoxypyridin-3-yl]-4-oxo-4,7-dihydro-5H-spiro[furo[3,2-c]pyridine-6,3′-oxetane]-3-carboxamide]",7.2
19,"CCOc1nc(N2CCN(C(C)=O)CC2)ccc1NC(=O)c1coc2c1C(=O)N[C@@H]([C@@H](C)O)C2 [Example 115, (6R)—N-[6-(4-acetylpiperazin-1-yl)-2-ethoxypyridin-3-yl]-6-[(1R)-1-hydroxyethyl]-4-oxo-4,5,6,7-tetrahydrofuro[3,2-c]pyridine-3-carboxamide]",8.5
20,"CCOc1nc(N2CCN(C(C)=O)CC2)ccc1NC(=O)c1coc2c1C(=O)N(CCO)C1(CCC1)C2 [Example 116, N-[6-(4-acetylpiperazin-1-yl)-2-ethoxypyridin-3-yl]-5′-(2-hydroxyethyl)-4′-oxo-4′,7′-dihydro-5′H-spiro[cyclobutane-1,6′-furo[3,2-c]pyridine]-3′-carboxamide]",3.1
21,"CCOc1nc(N2CCN(C(C)=O)CC2)ccc1NC(=O)c1coc2c1C(=O)NC1(CC1)C2 [Example 117, N-[6-(4-acetylpiperazin-1-yl)-2-ethoxypyridin-3-yl]-4′-oxo-4′,7′-dihydro-5′H-spiro[cyclopropane-1,6′-furo[3,2-c]pyridine]-3′-carboxamide]",5.3
22,"CCOc1nc(N2CCN(C(=NC#N)NC)CC2)ccc1NC(=O)c1coc2c1C(=O)NC1(CCC1)C2 [Example 118, N-{6-[4-(N′-cyano-N-methylcarbamimidoyl)piperazin-1-yl]-2-ethoxypyridin-3-yl}-4′-oxo-4′,7′-dihydro-5′H-spiro[cyclobutane-1,6′-furo[3,2-c]pyridine]-3′-carboxamide]",3
23,"CCOc1nc(N2CCN(C(C)=O)CC2)ccc1NC(=O)c1coc2c1C(=O)N(CC(O)CO)C(C)(C)C2 (centres unmarked) [Example 119, N-[6-(4-acetylpiperazin-1-yl)-2-ethoxypyridin-3-yl]-5-(2,3-dihydroxypropyl)-6,6-dimethyl-4-oxo-4,5,6,7-tetrahydrofuro[3,2-c]pyridine-3-carboxamide]",6.8
24,"COc1cc(N2CCNCC2)ccc1NC(=O)c1coc2c1C(=O)NC(C)(C)C2 [Example 120, N-[2-methoxy-4-(piperazin-1-yl)phenyl]-6,6-dimethyl-4-oxo-4,5,6,7-tetrahydrofuro[3,2-c]pyridine-3-carboxamide]",28
25,"COc1nc(N2CCN(C(C)=O)CC2)ccc1NC(=O)c1coc2c1C(=O)NC(C)(C)C2 [Example 122, N-[6-(4-acetylpiperazin-1-yl)-2-methoxypyridin-3-yl]-6,6-dimethyl-4-oxo-4,5,6,7-tetrahydrofuro[3,2-c]pyridine-3-carboxamide]",14.1
26,"COc1nc(N2CCN(C(=O)N3CCCC3)CC2)ccc1NC(=O)c1coc2c1C(=O)NC(C)(C)C2 [Example 123, N-{2-methoxy-6-[4-(pyrrolidin-1-ylcarbonyl)piperazin-1-yl]pyridin-3-yl}-6,6-dimethyl-4-oxo-4,5,6,7-tetrahydrofuro[3,2-c]pyridine-3-carboxamide]",11.9
27,"COc1cc(N2CCNCC2)ccc1NC(=O)c1coc2c1C(=O)NC(C)C2 (centres unmarked) [Example 124, N-[2-methoxy-4-(piperazin-1-yl)phenyl]-6-methyl-4-oxo-4,5,6,7-tetrahydrofuro[3,2-c]pyridine-3-carboxamide]",73.7
28,"COc1cc(N2CCN(S(C)(=O)=O)CC2)ccc1NC(=O)c1coc2c1C(=O)NC(C)(C)C2 [Example 125, N-{2-methoxy-4-[4-(methylsulfonyl)piperazin-1-yl]phenyl}-6,6-dimethyl-4-oxo-4,5,6,7-tetrahydrofuro[3,2-c]pyridine-3-carboxamide]",35.9
29,"CCOc1nc(N2CCNCC2)ccc1NC(=O)c1coc2c1C(=O)NC(C)(C)C2 [Example 127, N-[2-ethoxy-6-(piperazin-1-yl)pyridin-3-yl]-6,6-dimethyl-4-oxo-4,5,6,7-tetrahydrofuro[3,2-c]pyridine-3-carboxamide]",13.2
